From PMC5508548 (Bioorganic & medicinal chemistry letters, 2017)

What was measured:
In vitro clearance, rat = assay type: in vitro ADME; settings: for CLHEP, rat: in vitro predicted, well-stirred equation without fuplasma/fumic terms; for CLHEP, rat / CLint scaled: rat; for CLint scaled: liver microsomes
[1] = In vitro clearance, human; assay type: in vitro ADME; settings: for CLHEP, human: in vitro predicted; for CLint scaled: liver microsomes
[2] = IV pharmacokinetics in SD rat; assay type: in vivo; settings: Sprague-Dawley, plasma
CYP450s (panel) = test: CYP450 inhibition profile; assay type: in vitro ADME
cyno M4 = cyno M4 (Macaca fascicularis, UniProt G7PQB4); test: ACh CRC fold-shift Ca2+ mobilization and ACh competition binding; assay type: cell-based, cynomolgus monkey; settings: operational model cooperativity; n=3–4
rat M1-3,5 = test: Muscarinic subtype selectivity, rat M1-3,5; assay type: cell-based; settings: read-out: EC50 at rat M1-3,5
human M1-3,5 = test: Muscarinic subtype selectivity, human M1-3,5; assay type: cell-based; settings: read-out: EC50 at human M1-3,5
dog M2 = test: Muscarinic subtype selectivity, dog M2; assay type: cell-based; settings: data not shown
cyno M2 = test: Muscarinic subtype selectivity, cyno M2; assay type: cell-based, cynomolgus monkey; settings: data not shown
GABAA receptor = test: GABAA functional assay; assay type: biochemical; settings: at 10 μM
TA98 and TA100 strains = test: Mini-Ames assay; settings: TA98 and TA100 strains ± S9
CYP 1A2/2B6/3A4 = test: CYP induction in cryopreserved human hepatocytes; assay type: in vitro ADME; settings: 48 hr incubation, enzyme activity readout
CYP1A2, CYP2B6, CYP3A4 = test: CYP induction in cryopreserved human hepatocytes; assay type: in vitro ADME; settings: human
[3] = Oral pharmacokinetics in rat; assay type: in vivo
[4] = IV and PO pharmacokinetics in dog; assay type: in vivo
[5] = IV and PO pharmacokinetics in cynomolgus monkey; assay type: in vivo
[6] = In vitro metabolite identification in cryopreserved hepatocytes; assay type: in vitro ADME, rat, dog, cynomolgus monkey, human
CYP450 = test: Human CYP450 phenotyping; assay type: in vitro ADME
[7] = Reactive metabolism/bioactivation; assay type: in vitro ADME; settings: human hepatic microsomes
[8] = system: L-DOPA-induced dyskinesia; settings: NHPs, 10 mg/kg IV; cited from earlier work
[9] = system: L-DOPA-induced dyskinesia; settings: PD-LID mice and NHPs; cited from earlier work

With `Cc1nnc2sc(C(=O)NCc3ccc(-c4ccnc(F)c4)cc3)c(N)c2c1C` [8k] as the molecule, how does the “CLHEP, rat” value (In vitro clearance, rat) read?
The value was 31.5 mL/min/kg.

And the CLint scaled (In vitro clearance, rat)?
The CLint scaled was 57.1 mL/min/kg.

And the “CLHEP, human” value [1]?
Its value is 17.8 mL/min/kg.

And the CLint scaled [1]?
Its CLint scaled is 19.6 mL/min/kg.

What about the clearance [2] of the same molecule?
The clearance was 3.6 mL/min/kg.

With `Cc1nnc2sc(C(=O)NCc3ccc(-c4ccncc4)cc3)c(N)c2c1C` [8f] as the molecule, how does the “CLHEP, rat” value (In vitro clearance, rat) read?
Its value is 59.9 mL/min/kg.

And the CLint scaled (In vitro clearance, rat)?
The CLint scaled was 415 mL/min/kg.

What about the “CLHEP, human” value [1] of the same molecule?
The value was 15.2 mL/min/kg.

And the CLint scaled [1]?
The CLint scaled was 20.1 mL/min/kg.

And the IC50 (CYP450s (panel))?
Its IC50 is less than 10 µM.

What about the clearance [2] of the same molecule?
Its clearance is 9 mL/min/kg.

With `Cc1nnc2sc(C(=O)NCc3ccc(-c4ccc(F)nc4)cc3)c(N)c2c1C` [8m] as the molecule, how does the “CLHEP, rat” value (In vitro clearance, rat) read?
The value was 37.7 mL/min/kg.

What about the CLint scaled (In vitro clearance, rat) of the same molecule?
The CLint scaled was 81.6 mL/min/kg.

What about the “CLHEP, human” value [1] of the same molecule?
The value was 17.1 mL/min/kg.

What about the CLint scaled [1] of the same molecule?
The CLint scaled was 20.2 mL/min/kg.

What about the clearance [2] of the same molecule?
The clearance was 1.7 mL/min/kg.

Which “α at cyno M4” value (cyno M4) does the source give for `Cc1nnc2sc(C(=O)NCc3ccc(-c4cccnc4F)cc3)c(N)c2c1C` [8p, 5-amino-N-(4-(2-fluoropyridine-3-yl)benzyl)-3,4-dimethylthieno[2,3-c] pyridazine-6-carboxamide] here?
The value was 28.2.

And the “β at cyno M4” value (cyno M4)?
Its value is 2.5.

What about the EC50 (rat M1-3,5) of the same molecule?
Its EC50 is greater than 30 µM.

What about the EC50 (human M1-3,5) of the same molecule?
The EC50 was greater than 30 µM.

What about the “activity at dog M2” value (dog M2) of the same molecule?
The value was “inactive”.

What about the “activity at cyno M2” value (cyno M2) of the same molecule?
The value was “inactive”.

What about the “GABAA functional assay activity” value (GABAA receptor) of the same molecule?
Its value is “no activity”.

And the mini-Ames mutagenicity (TA98 and TA100 strains)?
Its mini-Ames mutagenicity is “negative”.

And the “CYP 1A2/2B6/3A4 induction Emaxs” value (CYP 1A2/2B6/3A4)?
The value was less than 2.

And the EC50 at 48 h (CYP1A2, CYP2B6, CYP3A4)?
Its EC50 at 48 h is greater than 50 µM.

What about the “CLHEP, rat” value (In vitro clearance, rat) of the same molecule?
Its value is 46.0 mL/min/kg.

What about the “predicted rat CLhep, revised prediction method” value (In vitro clearance, rat; inclusion of binding terms in the well-stirred model) of the same molecule?
Its value is 0.49 mL/min/kg.

And the CLint scaled (In vitro clearance, rat)?
The CLint scaled was 134 mL/min/kg.

And the “CLHEP, human” value [1]?
Its value is 14.8 mL/min/kg.

And the CLint scaled [1]?
The CLint scaled was 19.2 mL/min/kg.

What about the IC50 (CYP450s (panel)) of the same molecule?
Its IC50 is no less than 11 µM.

And the clearance [2]?
Its clearance is 1.6 mL/min/kg.

And the oral bioavailability ([3]; 10 mg/kg solution dose)?
The oral bioavailability was 61 % F.

And the oral bioavailability ([3]; HCl salt of 8p dosed as a suspension)?
Its oral bioavailability is 54 %F.

And the oral bioavailability ([4]; 3 mg/kg suspension dose of the HCl salt)?
Its oral bioavailability is 47 %F.

And the clearance ([4]; plasma, iv)?
Its clearance is 5.5 mL/min/kg.

And the oral bioavailability ([5]; 10 mg/kg solution dose of HCl salt)?
The oral bioavailability was 4.7 %F.

What about the clearance ([5]; plasma, iv) of the same molecule?
The clearance was 9.3 mL/min/kg.

What about the human unique metabolites ([6]; cryopreserved hepatocytes, multiple species) of the same molecule?
Its human unique metabolites is “no evidence for human unique metabolites”.

And the “turnover in cryopreserved hepatocytes” value ([6]; rat, dog, cynomolgus monkey, human hepatocytes)?
Its value is “low turnover”.

And the “CYPs contributing to metabolism” value (CYP450)?
Its value is 3A4 (predominant), 2D6, 2C19, 2C9 and 1A2.

And the GSH conjugates [7]?
The GSH conjugates was “no significant levels of GSH conjugates”.

What about the “dyskinesia scores and involuntary movements” value [8] of the same molecule?
Its value is “significantly reduces dyskinesia scores and involuntary movements”.

What about the “deficits in synaptic plasticity and behavior” value [9] of the same molecule?
Its value is “ameliorates deficits in synaptic plasticity and behavior”.
